Test results as given in US8192962B2, “Processes for detecting toxic substances” (Daikin Industries, Ltd., priority 2001, dated 2012).

System: Detoxification protein genes
Test: DNA chip mRNA expression in yeast, detoxification protein genes (Table 8)
Format: cell-based, Saccharomyces cerevisiae S288C
Method: Yeast (Saccharomyces cerevisiae S288C (α SUC2mal mel gap2 CUP1)) were incubated at 25° C. on YPD medium (yeast extract 1%, polypepton 2%, glucose 2%). One of toxic chemical substances was added to the cells at logarithmic growth phase, and the cells were further incubated for two hours. Cells were cultured without any chemical substance in the same condition, and were used as control. Concentrations of the chemical substances were defined to inhibit the growth of the yeast but not lead to death.
After completion of the incubation, the culture was centrifuged to collect the cells. To the cells, sodium acetate buffer (50 mM sodium acetate, 10 mM EDTA, 1% SDS) was added, and the mixture was shaken at 65° C. for five minutes, followed by returning to room temperature, and obtaining the supernatant, of which the procedures were repeated two times. To the supernatant, ½ amount of a solution of phenol/chloroform was added, and the mixture was centrifuged to give a supernatant, which was added with an equal amount of chloroform, and the mixture was centrifuged to give a supernatant. To the supernatant, an equal amount of isopropanol containing 0.3 M sodium acetate was added, and the mixture was allowed to stand at room temperature for 30 minutes, after which the mixture was centrifuged to give a sediment of the whole RNAs. Seventy % ethanol was added to the sediment, and the mixture was again centrifuged to give a sediment, which was then dried and dissolved in water. mRNA was isolated from the whole RNAs as followings. In view of the fact that a poly A chain is attached to the 3′ terminus of mRNA, a polynucleotide having a poly T structure which was immobilized on the surface of latex beads was used to trap the mRNA, and then the mRNA was washed and eluted with spine column (Oligotex-dT30<Super>mRNA Purification Kit, Takara). Reverse transcription of the mRNA was conducted with a reverse transcriptase (Super Script II Reverse Transcriptase; catalogue No. 18064-014, GibcoBRL) using fluorescence-labeled nucleotides to give cDNAs that were introduced with Cy3-dUTP or Cy5-dUTP during the reverse transcription.
The labeled cDNAs were dissolved in TE buffer (10mM Tris-HCl/1 mM EDTA, pH8.0), and the solution was dropped on the DNA chip containing the whole genes of yeast (DNA Chip Research Inc. Japan) so that the cDNAs were hybridized on the DNA chip at 65° C. for over 12 hours. The fluoresces intensity of the DNA chip was read with a scanner, and the ratio relative to the fluorescence intensity resulting from the absence of chemical substance was estimated as the following, which is shown in Tables 1 to 9: […]

[Cl][Cd][Cl] [(2), CdCl2]
The level of expressed mRNA in the presence of chemical substance/The level of expressed mRNA in the absence of chemical substance (yeast gene YBL064C): 2.8 | The level of expressed mRNA in the presence of chemical substance/The level of expressed mRNA in the absence of chemical substance (yeast gene YBR008C): 2.4 | The level of expressed mRNA in the presence of chemical substance/The level of expressed mRNA in the absence of chemical substance (yeast gene YBR145W): 0.7 | The level of expressed mRNA in the presence of chemical substance/The level of expressed mRNA in the absence of chemical substance (yeast gene YBR244W): 1.4 | The level of expressed mRNA in the presence of chemical substance/The level of expressed mRNA in the absence of chemical substance (yeast gene YBR293W): 3.1 | The level of expressed mRNA in the presence of chemical substance/The level of expressed mRNA in the absence of chemical substance (yeast gene YCL035C): 2.3 | The level of expressed mRNA in the presence of chemical substance/The level of expressed mRNA in the absence of chemical substance (yeast gene YCL069W): 15.7 | The level of expressed mRNA in the presence of chemical substance/The level of expressed mRNA in the absence of chemical substance (yeast gene YCR083W): 2.8 | The level of expressed mRNA in the presence of chemical substance/The level of expressed mRNA in the absence of chemical substance (yeast gene YDL100C): 1.2 | The level of expressed mRNA in the presence of chemical substance/The level of expressed mRNA in the absence of chemical substance (yeast gene YDL168W): 2.0 | The level of expressed mRNA in the presence of chemical substance/The level of expressed mRNA in the absence of chemical substance (yeast gene YDR256C): 1.4 | The level of expressed mRNA in the presence of chemical substance/The level of expressed mRNA in the absence of chemical substance (yeast gene YDR453C): 2.7 | The level of expressed mRNA in the presence of chemical substance/The level of expressed mRNA in the absence of chemical substance (yeast gene YDR513W): 2.5 | The level of expressed mRNA in the presence of chemical substance/The level of expressed mRNA in the absence of chemical substance (yeast gene YDR538W): 1.1 | The level of expressed mRNA in the presence of chemical substance/The level of expressed mRNA in the absence of chemical substance (yeast gene YEL027W): 0.6 | The level of expressed mRNA in the presence of chemical substance/The level of expressed mRNA in the absence of chemical substance (yeast gene YEL065W): 3.8 | The level of expressed mRNA in the presence of chemical substance/The level of expressed mRNA in the absence of chemical substance (yeast gene YER185W): 3.1 | The level of expressed mRNA in the presence of chemical substance/The level of expressed mRNA in the absence of chemical substance (yeast gene YFL050C): 1.0 | The level of expressed mRNA in the presence of chemical substance/The level of expressed mRNA in the absence of chemical substance (yeast gene YGL013C): 1.2 | The level of expressed mRNA in the presence of chemical substance/The level of expressed mRNA in the absence of chemical substance (yeast gene YGL254W): 1.1 | The level of expressed mRNA in the presence of chemical substance/The level of expressed mRNA in the absence of chemical substance (yeast gene YGR088W): 1.2 | The level of expressed mRNA in the presence of chemical substance/The level of expressed mRNA in the absence of chemical substance (yeast gene YGR138C): 1.6 | The level of expressed mRNA in the presence of chemical substance/The level of expressed mRNA in the absence of chemical substance (yeast gene YGR197C): 2.4 | The level of expressed mRNA in the presence of chemical substance/The level of expressed mRNA in the absence of chemical substance (yeast gene YGR209C): 3.1 | The level of expressed mRNA in the presence of chemical substance/The level of expressed mRNA in the absence of chemical substance (yeast gene YGR224W): 1.2 | The level of expressed mRNA in the presence of chemical substance/The level of expressed mRNA in the absence of chemical substance (yeast gene YHL040C): 4.4 | The level of expressed mRNA in the presence of chemical substance/The level of expressed mRNA in the absence of chemical substance (yeast gene YHL047C): 4.4 | The level of expressed mRNA in the presence of chemical substance/The level of expressed mRNA in the absence of chemical substance (yeast gene YHR008C): 6.9 | The level of expressed mRNA in the presence of chemical substance/The level of expressed mRNA in the absence of chemical substance (yeast gene YHR048W): 1.4 | The level of expressed mRNA in the presence of chemical substance/The level of expressed mRNA in the absence of chemical substance (yeast gene YHR053C): 2.1 | The level of expressed mRNA in the presence of chemical substance/The level of expressed mRNA in the absence of chemical substance (yeast gene YHR055C): 1.8 | The level of expressed mRNA in the presence of chemical substance/The level of expressed mRNA in the absence of chemical substance (yeast gene YIR002C): 1.1 | The level of expressed mRNA in the presence of chemical substance/The level of expressed mRNA in the absence of chemical substance (yeast gene YIR038C): 3.5 | The level of expressed mRNA in the presence of chemical substance/The level of expressed mRNA in the absence of chemical substance (yeast gene YJL101C): 1.9 | The level of expressed mRNA in the presence of chemical substance/The level of expressed mRNA in the absence of chemical substance (yeast gene YJR104C): 1.8 | The level of expressed mRNA in the presence of chemical substance/The level of expressed mRNA in the absence of chemical substance (yeast gene YKL026C): 2.0 | The level of expressed mRNA in the presence of chemical substance/The level of expressed mRNA in the absence of chemical substance (yeast gene YKL064W): 0.9 | The level of expressed mRNA in the presence of chemical substance/The level of expressed mRNA in the absence of chemical substance (yeast gene YKR066C): 1.4 | The level of expressed mRNA in the presence of chemical substance/The level of expressed mRNA in the absence of chemical substance (yeast gene YKR105C): 0.9 | The level of expressed mRNA in the presence of chemical substance/The level of expressed mRNA in the absence of chemical substance (yeast gene YKR106W): 0.8 | The level of expressed mRNA in the presence of chemical substance/The level of expressed mRNA in the absence of chemical substance (yeast gene YLL028W): 0.9 | The level of expressed mRNA in the presence of chemical substance/The level of expressed mRNA in the absence of chemical substance (yeast gene YLL057C): 59.9 | The level of expressed mRNA in the presence of chemical substance/The level of expressed mRNA in the absence of chemical substance (yeast gene YLL060C): 4.2 | The level of expressed mRNA in the presence of chemical substance/The level of expressed mRNA in the absence of chemical substance (yeast gene YLR043C): 1.4 | The level of expressed mRNA in the presence of chemical substance/The level of expressed mRNA in the absence of chemical substance (yeast gene YLR046C): 1.7 | The level of expressed mRNA in the presence of chemical substance/The level of expressed mRNA in the absence of chemical substance (yeast gene YML028W): 2.2 | The level of expressed mRNA in the presence of chemical substance/The level of expressed mRNA in the absence of chemical substance (yeast gene YML116W): 1.3 | The level of expressed mRNA in the presence of chemical substance/The level of expressed mRNA in the absence of chemical substance (yeast gene YMR015C): 0.7 | The level of expressed mRNA in the presence of chemical substance/The level of expressed mRNA in the absence of chemical substance (yeast gene YMR038C): 1.7 | The level of expressed mRNA in the presence of chemical substance/The level of expressed mRNA in the absence of chemical substance (yeast gene YNL239W): 2.4 | The level of expressed mRNA in the presence of chemical substance/The level of expressed mRNA in the absence of chemical substance (yeast gene YNL241C): 2.5 | The level of expressed mRNA in the presence of chemical substance/The level of expressed mRNA in the absence of chemical substance (yeast gene YNL259C): 4.5 | The level of expressed mRNA in the presence of chemical substance/The level of expressed mRNA in the absence of chemical substance (yeast gene YOL158C): 4.0 | The level of expressed mRNA in the presence of chemical substance/The level of expressed mRNA in the absence of chemical substance (yeast gene YOR031W): 1.7 | The level of expressed mRNA in the presence of chemical substance/The level of expressed mRNA in the absence of chemical substance (yeast gene YOR153W): 0.9 | The level of expressed mRNA in the presence of chemical substance/The level of expressed mRNA in the absence of chemical substance (yeast gene YOR247W): 0.6 | The level of expressed mRNA in the presence of chemical substance/The level of expressed mRNA in the absence of chemical substance (yeast gene YOR251C): 1.0 | The level of expressed mRNA in the presence of chemical substance/The level of expressed mRNA in the absence of chemical substance (yeast gene YOR273C): 1.0 | The level of expressed mRNA in the presence of chemical substance/The level of expressed mRNA in the absence of chemical substance (yeast gene YPL163C): 0.7 | The level of expressed mRNA in the presence of chemical substance/The level of expressed mRNA in the absence of chemical substance (yeast gene YPR200C): 1.7
